Laboratory results from US11713305B2, “Zinc sensors for in vivo imaging of beta-cell function by MRI” (The Board of Regents of the University of Texas System, priority 2017, dated 2023).
Each block holds one molecule with its values, some of them ahead of it.

How the values were obtained:
HSA = target: T1, HSA (Homo sapiens, UniProt P02768); assay: Proton relaxation enhancement (PRE) titrations with HSA; type: binding; details: for r1^c (relaxivity of the bound state): HSA-bound GdL-Zn, from PRE fit; for Kd: fitting proton relaxation enhancement data to equation (1), 20 MHz, 310 K, read-out: KD(GdLZnHSA)
T1 construct: purchased Sigma-Aldrich
T1 sequence (P02768 25-609): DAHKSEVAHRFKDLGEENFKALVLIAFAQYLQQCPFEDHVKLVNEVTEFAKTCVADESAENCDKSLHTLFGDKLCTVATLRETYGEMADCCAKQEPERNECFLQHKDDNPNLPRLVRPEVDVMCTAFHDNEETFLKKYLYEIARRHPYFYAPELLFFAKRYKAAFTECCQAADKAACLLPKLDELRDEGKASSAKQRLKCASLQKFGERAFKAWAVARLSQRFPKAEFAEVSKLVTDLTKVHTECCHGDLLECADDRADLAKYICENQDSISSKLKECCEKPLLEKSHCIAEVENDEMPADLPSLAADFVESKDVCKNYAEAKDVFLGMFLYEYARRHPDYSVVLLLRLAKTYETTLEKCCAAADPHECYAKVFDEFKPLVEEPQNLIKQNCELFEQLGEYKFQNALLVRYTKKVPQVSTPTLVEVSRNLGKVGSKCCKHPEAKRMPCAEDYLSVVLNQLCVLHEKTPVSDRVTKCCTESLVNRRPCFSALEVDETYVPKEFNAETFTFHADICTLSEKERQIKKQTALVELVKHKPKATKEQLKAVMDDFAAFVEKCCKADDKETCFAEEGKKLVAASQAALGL
Procedure: Proton relaxation enhancement (PRE) titrations were performed to evaluate the binding of these agents to HSA under conditions where the concentration of HSA was varied while the concentration of GdL and Zn^2+ (1:1) were held constant (FIG. 6). […] These types of complexes only bind to HSA-binding site 2 of subdomain IIIA, so n was assumed=1.
Affinity constants to HSA were assessed by proton relaxation enhancement (PRE) measurements according to published procedures (Martins et al., 2013a; Martins et al., 2013b) The proton relaxation rates at increasing concentrations of protein were measured with a MRS-6 NMR analyzer (20 MHz, 310 K). For the E-titration, the concentrations of GdL complex (0.1 mM) and Zn(II) (0.1 mM) were kept constant, while the protein concentration was varied from 0 to 0.6 mM.

mouse pancreas = assay: In vivo MR imaging of glucose stimulated insulin secretion (GSIS) in the mouse pancreas; set-up: species or system C57B1/6 mice; details: for T1-weighted MR image enhancement in pancreatic tissues and kidneys: over the first 10-15 min after injection
Text: Both phases of insulin secretion are considered essential, but the early RRP phase that is thought to be the first signal reduced during the development of type 2 diabetes (Komatsu et al., 2013; Hosker et al., 1989). In principle, both phases of insulin secretion should be detectable by MRI if enough sensor is present in the extracellular space during the time-course of these events. Biphasic GSIS was not detected by MRI in previous experiments using the first generation Zn^2+ sensors with a high affinity for Zn^2+ but we hypothesized that GSIS may be more easily detected using these second-generation agents having a much lower affinity for Zn^2+. To test this, dynamic MRI scans were collected after administering either GdL1, GdL2, GdL3 or GdL4 to C57B1/6 mice via a tail vein (0.07 mmol/kg). Nearly simultaneously with agent injection, a bolus (50 μL) of 20% w/v glucose was administered IP to stimulate secretion of insulin.
All animal experiments were performed in accordance with guidelines set by the UT Southwestern Institutional Animal Care and Use Committee (IACUC). Male C57b1/6 mice were fasted for at least 12 hours before imaging experiments. The animals were anaesthetized with isofluorane and catheterized via the tail vein. Once the animals were secured inside a 38 mm volume coil, the pancreas was positioned in the center of the 9.4 T Varian MRI scanner. Two 3D T1-weighted gradient echo pre-injection scans were obtained (TE/TR=1.69/3.34 ms, NEX8, Matrix=128×128 ×128). 70 μl of 20 mM contrast agent were injected i.v. and 50 μl of 20% w/v D-glucose were injected intraperitoneally and consecutive 3D T1-weighted scans were obtained sequentially to monitor signal enhancement in the pancreas. Identification of the pancreas was accomplished by locating the tissues surrounded by the spleen, stomach, and kidneys. A total of 3 animals were scanned per group and images were quantified and analyzed using ImageJ (National Institutes of Health, Bethesda, Md.). The signal intensities from ROIs of the tip of the pancreas were measured before, at every ˜3-4 minutes post D-glucose injection over 30 minutes total. The values were normalized to the signal intensity obtained from a water phantom placed on the mouse abdomen. Contrast enhancement was calculated using the formula
[formula] Statistical analysis was performed by comparing the mean values using a two-tailed t-test. Statistical difference was evaluated using t-scores and p-values at a 95 and 99% confidence level.

Structure (SMILES): O=C(O)CCN1CCN(CC(=O)O)CCN(CC(=O)NCCN(Cc2ccccn2)Cc2ccccn2)CCN(CC(=O)O)CC1 [GdL3]
- r1^c (relaxivity of the bound state) (HSA): 30 ± 0.6 s⁻¹ mM⁻¹
- Kd (HSA): 51 ± 7 µM
- T1-weighted MR image enhancement in pancreatic tissues and kidneys (mouse pancreas; 0.07 mmol/kg i.v., glucose IP): significant image enhancements

Structure (SMILES): O=C(O)CN1CCN(CC(=O)O)CCN(CC(=O)NCCN(CCc2ccccn2)Cc2ccccn2)CCN(CC(=O)O)CC1 [GdL4]
- r1^c (relaxivity of the bound state) (HSA): 12 ± 0.3 s⁻¹ mM⁻¹
- Kd (HSA): 55 ± 12 µM
- dynamic images: phases of insulin secretion detected (mouse pancreas; 0.07 mmol/kg i.v., glucose IP, n=3): both early phase (3-4 min) and late phase (13-17 min) insulin secretion
- Area under the curve (AUC) t=11−19 minutes post-glucose stimulation (FIG. 7C) (mouse pancreas; compared to control Gd-HPDO3A and GdL1): improved bi-phasic profile
- enhancement profile from pancreas ROI normalized to external phantom (FIG. 7B) (mouse pancreas; mouse, in vivo): distinct bi-phasic profile
- pancreatic response at 3 minutes (FIG. 7A) (mouse pancreas; post-glucose stimulation): enhance the pancreas
- pancreatic response at 15 minutes (FIG. 7A) (mouse pancreas; post-glucose stimulation): shows second-phase enhancement

Structure (SMILES): O=C(O)CN1CCN(CCC(=O)NCCN(CCc2ccccn2)Cc2ccccn2)CCN(CC(=O)O)CCN(CC(=O)O)CC1 [GdL5]
- r1^c (relaxivity of the bound state) (HSA): 12 ± 0.3 s⁻¹ mM⁻¹
- Kd (HSA): 54 ± 1 µM

Molecules with a lower Kd (HSA), results first:

- r1^c (relaxivity of the bound state) (HSA): 28 ± 0.3 s⁻¹ mM⁻¹
- Kd (HSA): 49 ± 7 µM
Structure (SMILES): O=C(O)CN1CCN(CCC(=O)NCCN(Cc2ccccn2)Cc2ccccn2)CCN(CC(=O)O)CCN(CC(=O)O)CC1 [GdL2]
- T1-weighted MR image enhancement in pancreatic tissues and kidneys (mouse pancreas; 0.07 mmol/kg i.v., glucose IP): significant image enhancements

- r1^c (relaxivity of the bound state) (HSA): 20 ± 0.5 s⁻¹ mM⁻¹
- Kd (HSA): 48 ± 6 µM
Structure (SMILES): O=C(O)CN1CCN(CC(=O)O)CCN(CC(=O)NCCN(Cc2ccccn2)Cc2ccccn2)CCN(CC(=O)O)CC1 [GdL1]
- T1-weighted MR image enhancement in pancreatic tissues and kidneys (mouse pancreas; 0.07 mmol/kg i.v., glucose IP): significant image enhancements
- pancreatic response at 3 minutes (FIG. 7A) (mouse pancreas; post-glucose stimulation): enhance the pancreas
